Legend:
Format in all cases: cell-based
[1] = test system: E.coli; assay: Quantitative germ count (re-isolation, surface method) after inoculating the test preparation; conditions: Ausgangskeimzahl 2,7 x 10^5 KBE/ml
Source text: (§1) Escherichia (E.coli) Staphylococcus (S.aureus) Streptococcus (Sc.) Pneumoniae Pseudomonas (P.aeruginosa) Staphylococcus (S. epidermidis) Haemophilus (H. influenzae)
(§2) Die verschiedenen Testkeime wurde jeweils aus einem Lyophilisat in NaCl-Peptonpuffer homogenisiert und auf Caseinpepton-Sojymehlpepton. (Caso-) Agar (Fa. bioMérieux; Art. Nr. 43019) bez. Kochblut-Agar (Fa. bioMérieux; Art. Nr. 43109) subkultiviert. Die Teststämme wurden vor Versuchsbeginn durch Erstellen eines biochemischen Profils mittels ATB/Vitek-System (Fa. bioMérieux, Nürtingen) auf Reinheit und Identität überprüft.
(§3) Die Ausgangskeimzahl wurde im Oberflächenverfahren mit Hilfe eines Spiralplaters (Fa. Meintrup, Lähden) ermittelt und ist im einzelnen den Tabellen 1-12 zu entnehmen.
(§4) Die verschiedenen Testsubstanzen a. bis j. wurden jeweils zu 5 ml in sterile Zentrifugenröhrchen abgefüllt und mit ca. 10^5 KBE^*/ml (* = koloniebildende Einheiten) der oben genannten Testkeime kontaminiert. Pro Substanz wurde für jeden Testkeim und jede zu prüfende Testzeit ein separater Ansatz angeimpft, d.h.10 Testsubstanzen zu jeweils 7 Testzeiten und 6 Testkeime (= insgesamt 502 Testansätze). […] Der Überstand wurde dekantiert und das Pellet in 5 ml NaCl Peptonpuffer aufgenommen und resuspendiert. Die Suspension wurde erneut 10 Minuten bei 3000 rpm abzentrifugiert und 5 ml NaCl-Peptonpuffer aufgenommen und mittels Vortex homogenisiert.
(§5) Die anschließende Keimzahlbestimmung erfolgte im Oberflächenverfahren durch Ausspiralisieren eines […] Aliquots auf Caso-Agar bzw. für H. influenzae auf Kochblut-Agar. Die Platten wurden bei 33±2°C für max. 4 Tage bebrütet. Die Nachweisgrenze des Verfahrens liegt bei 100 KBE/ml.

[2] = test system: H.influenzae; assay: as above; conditions: Ausgangskeimzahl 2,8 x 10^5 KBE/ml
Source text: as §1, §2, §3, §4, §5

[3] = test system: S.aureus; assay: as above; conditions: Ausgangskeimzahl 2,6 x 10^5 KBE/ml
Source text: as §1, §2, §3, §4, §5

[4] = test system: Sc. pneumoniae; assay: as above; conditions: Ausgangskeimzahl 3,7 x 10^5 KBE/ml
Source text: as §1, §2, §3, §4, §5

[5] = test system: P.aeruginosa; assay: as above; conditions: Ausgangskeimzahl 2,7 x 10^5 KBE/ml
Source text: as §1, §2, §3
(§6) Die verschiedenen Testsubstanzen a. bis j. wurden jeweils zu 5 ml in sterile Zentrifugenröhrchen abgefüllt und mit ca. 10^5 KBE^*/ml (* = koloniebildende Einheiten) der oben genannten Testkeime kontaminiert. Pro Substanz wurde für jeden Testkeim und jede zu prüfende Testzeit ein separater Ansatz angeimpft, d.h.10 Testsubstanzen zu jeweils 7 Testzeiten und 6 Testkeime (= insgesamt 502 Testansätze). Nach 2, 6, 8, 24, 32, 48 und 72 Stunden wurde dann der jeweilige Testansatz 10 Minuten bei 3000 rpm abzentrifugiert. Der Überstand wurde dekantiert und das Pellet in 5 ml NaCl Peptonpuffer aufgenommen und resuspendiert. Die Suspension wurde erneut 10 Minuten bei 3000 rpm abzentrifugiert und 5 ml NaCl-Peptonpuffer aufgenommen und mittels Vortex homogenisiert.
as §5

[6] = test system: S.epidermidis; assay: as above; conditions: Ausgangskeimzahl 2,1 x 10^5 KBE/ml
Source text: as §1, §2, §3, §6, §5

[7] = test system: E.coli; assay: Qualitative examination: enrichment of the inoculated test preparation in broth
Source text: as §1, §2, §4
(§7) Jeweils 2 ml der Testansätze wurden in 20 ml Caso-Bouillon oder für H. influenzae, in Fildes-Medium der Firma Becton Dickinson, ARt. Nr. 0349-739, angereichert und ebenfalls maximal 4 Tage bei 33± 2°C bebrütet. Ein negatives Ergebnis der Anreicherung belegt die Elimination der inokulierten Keime.

[8] = test system: S.aureus; assay: as above
Source text: as §1, §2, §4, §7

[9] = test system: S.epidermidis; assay: as above
Source text: as §1, §2, §4, §7

[10] = test system: Sc. pneumoniae; assay: as above
Source text: as §1, §2, §4, §7

[11] = test system: P.aeruginosa; assay: as above
Source text: as §1, §2, §6, §7

SMILES: CC1COc2c(N3CCN(C)CC3)c(F)cc3c(=O)c(C(=O)O)cn1c23 (stereo not shown) [Ofloxacin 0,3 Gew.-%, Ofloxacin, reference compound]
- Ergebnis der Reisolierung (in KBE/ml) ([1]; 2 h after inoculation): <100 KBE/ml
- Ergebnis der Reisolierung (in KBE/ml) ([1]; 4 h after inoculation): <100 KBE/ml
- Ergebnis der Reisolierung (in KBE/ml) ([1]; 6 h after inoculation): <100 KBE/ml
- Ergebnis der Reisolierung (in KBE/ml) ([1]; 8 h after inoculation): <100 KBE/ml
- Ergebnis der Reisolierung (in KBE/ml) ([1]; 24 h after inoculation): <100 KBE/ml
- Ergebnis der Reisolierung (in KBE/ml) ([1]; 32 h after inoculation): <100 KBE/ml
- Ergebnis der Reisolierung (in KBE/ml) ([1]; 48 h after inoculation): <100 KBE/ml
- Ergebnis der Reisolierung (in KBE/ml) ([1]; 72 h after inoculation): <100 KBE/ml
- Ergebnis der Reisolierung (in KBE/ml) ([2]; 2 h after inoculation): <100 KBE/ml
- Ergebnis der Reisolierung (in KBE/ml) ([2]; 4 h after inoculation): <100 KBE/ml
- Ergebnis der Reisolierung (in KBE/ml) ([2]; 6 h after inoculation): <100 KBE/ml
- Ergebnis der Reisolierung (in KBE/ml) ([2]; 8 h after inoculation): <100 KBE/ml
- Ergebnis der Reisolierung (in KBE/ml) ([2]; 24 h after inoculation): <100 KBE/ml
- Ergebnis der Reisolierung (in KBE/ml) ([2]; 32 h after inoculation): <100 KBE/ml
- Ergebnis der Reisolierung (in KBE/ml) ([2]; 48 h after inoculation): <100 KBE/ml
- Ergebnis der Reisolierung (in KBE/ml) ([2]; 72 h after inoculation): <100 KBE/ml
- Ergebnis der Reisolierung (in KBE/ml) ([3]; 2 h after inoculation): <100 KBE/ml
- Ergebnis der Reisolierung (in KBE/ml) ([3]; 4 h after inoculation): <100 KBE/ml
- Ergebnis der Reisolierung (in KBE/ml) ([3]; 6 h after inoculation): <100 KBE/ml
- Ergebnis der Reisolierung (in KBE/ml) ([3]; 8 h after inoculation): <100 KBE/ml
- Ergebnis der Reisolierung (in KBE/ml) ([3]; 24 h after inoculation): <100 KBE/ml
- Ergebnis der Reisolierung (in KBE/ml) ([3]; 32 h after inoculation): <100 KBE/ml
- Ergebnis der Reisolierung (in KBE/ml) ([3]; 48 h after inoculation): <100 KBE/ml
- Ergebnis der Reisolierung (in KBE/ml) ([3]; 72 h after inoculation): <100 KBE/ml
- Ergebnis der Reisolierung (in KBE/ml) ([4]; 2 h after inoculation): <100 KBE/ml
- Ergebnis der Reisolierung (in KBE/ml) ([4]; 4 h after inoculation): <100 KBE/ml
- Ergebnis der Reisolierung (in KBE/ml) ([4]; 6 h after inoculation): <100 KBE/ml
- Ergebnis der Reisolierung (in KBE/ml) ([4]; 8 h after inoculation): <100 KBE/ml
- Ergebnis der Reisolierung (in KBE/ml) ([4]; 24 h after inoculation): <100 KBE/ml
- Ergebnis der Reisolierung (in KBE/ml) ([4]; 32 h after inoculation): <100 KBE/ml
- Ergebnis der Reisolierung (in KBE/ml) ([4]; 48 h after inoculation): <100 KBE/ml
- Ergebnis der Reisolierung (in KBE/ml) ([4]; 72 h after inoculation): <100 KBE/ml
- Ergebnis der Reisolierung (in KBE/ml) ([5]; 2 h after inoculation): <100 KBE/ml
- Ergebnis der Reisolierung (in KBE/ml) ([5]; 4 h after inoculation): <100 KBE/ml
- Ergebnis der Reisolierung (in KBE/ml) ([5]; 6 h after inoculation): <100 KBE/ml
- Ergebnis der Reisolierung (in KBE/ml) ([5]; 8 h after inoculation): <100 KBE/ml
- Ergebnis der Reisolierung (in KBE/ml) ([5]; 24 h after inoculation): <100 KBE/ml
- Ergebnis der Reisolierung (in KBE/ml) ([5]; 32 h after inoculation): <100 KBE/ml
- Ergebnis der Reisolierung (in KBE/ml) ([5]; 48 h after inoculation): <100 KBE/ml
- Ergebnis der Reisolierung (in KBE/ml) ([5]; 72 h after inoculation): <100 KBE/ml
- Ergebnis der Reisolierung (in KBE/ml) ([6]; 2 h after inoculation): <100 KBE/ml
- Ergebnis der Reisolierung (in KBE/ml) ([6]; 4 h after inoculation): <100 KBE/ml
- Ergebnis der Reisolierung (in KBE/ml) ([6]; 6 h after inoculation): <100 KBE/ml
- Ergebnis der Reisolierung (in KBE/ml) ([6]; 8 h after inoculation): <100 KBE/ml
- Ergebnis der Reisolierung (in KBE/ml) ([6]; 24 h after inoculation): <100 KBE/ml
- Ergebnis der Reisolierung (in KBE/ml) ([6]; 32 h after inoculation): <100 KBE/ml
- Ergebnis der Reisolierung (in KBE/ml) ([6]; 48 h after inoculation): <100 KBE/ml
- Ergebnis der Reisolierung (in KBE/ml) ([6]; 72 h after inoculation): <100 KBE/ml
- Ergebnis der Reisolierung qualitiativ (+/-) nach Anreicherung ([7]; 2 h after inoculation): -
- Ergebnis der Reisolierung qualitiativ (+/-) nach Anreicherung ([7]; 4 h after inoculation): -
- Ergebnis der Reisolierung qualitiativ (+/-) nach Anreicherung ([7]; 6 h after inoculation): -
- Ergebnis der Reisolierung qualitiativ (+/-) nach Anreicherung ([7]; 8 h after inoculation): -
- Ergebnis der Reisolierung qualitiativ (+/-) nach Anreicherung ([7]; 24 h after inoculation): -
- Ergebnis der Reisolierung qualitiativ (+/-) nach Anreicherung ([7]; 32 h after inoculation): -
- Ergebnis der Reisolierung qualitiativ (+/-) nach Anreicherung ([7]; 48 h after inoculation): -
- Ergebnis der Reisolierung qualitiativ (+/-) nach Anreicherung ([7]; 72 h after inoculation): -
- Ergebnis der Reisolierung qualitiativ (+/-) nach Anreicherung ([8]; 2 h after inoculation): +
- Ergebnis der Reisolierung qualitiativ (+/-) nach Anreicherung ([8]; 4 h after inoculation): +
- Ergebnis der Reisolierung qualitiativ (+/-) nach Anreicherung ([8]; 6 h after inoculation): +
- Ergebnis der Reisolierung qualitiativ (+/-) nach Anreicherung ([8]; 8 h after inoculation): -
- Ergebnis der Reisolierung qualitiativ (+/-) nach Anreicherung ([8]; 24 h after inoculation): -
- Ergebnis der Reisolierung qualitiativ (+/-) nach Anreicherung ([8]; 32 h after inoculation): -
- Ergebnis der Reisolierung qualitiativ (+/-) nach Anreicherung ([8]; 48 h after inoculation): -
- Ergebnis der Reisolierung qualitiativ (+/-) nach Anreicherung ([8]; 72 h after inoculation): -
- Ergebnis der Reisolierung qualitiativ (+/-) nach Anreicherung ([9]; 2 h after inoculation): +
- Ergebnis der Reisolierung qualitiativ (+/-) nach Anreicherung ([9]; 4 h after inoculation): +
- Ergebnis der Reisolierung qualitiativ (+/-) nach Anreicherung ([9]; 6 h after inoculation): +
- Ergebnis der Reisolierung qualitiativ (+/-) nach Anreicherung ([9]; 8 h after inoculation): -
- Ergebnis der Reisolierung qualitiativ (+/-) nach Anreicherung ([9]; 24 h after inoculation): -
- Ergebnis der Reisolierung qualitiativ (+/-) nach Anreicherung ([9]; 32 h after inoculation): -
- Ergebnis der Reisolierung qualitiativ (+/-) nach Anreicherung ([9]; 48 h after inoculation): -
- Ergebnis der Reisolierung qualitiativ (+/-) nach Anreicherung ([9]; 72 h after inoculation): -
- Ergebnis der Reisolierung qualitiativ (+/-) nach Anreicherung ([10]; 2 h after inoculation): -
- Ergebnis der Reisolierung qualitiativ (+/-) nach Anreicherung ([10]; 4 h after inoculation): +
- Ergebnis der Reisolierung qualitiativ (+/-) nach Anreicherung ([10]; 6 h after inoculation): -
- Ergebnis der Reisolierung qualitiativ (+/-) nach Anreicherung ([10]; 8 h after inoculation): -
- Ergebnis der Reisolierung qualitiativ (+/-) nach Anreicherung ([10]; 24 h after inoculation): -
- Ergebnis der Reisolierung qualitiativ (+/-) nach Anreicherung ([10]; 32 h after inoculation): -
- Ergebnis der Reisolierung qualitiativ (+/-) nach Anreicherung ([10]; 48 h after inoculation): -
- Ergebnis der Reisolierung qualitiativ (+/-) nach Anreicherung ([10]; 72 h after inoculation): -
- Ergebnis der Reisolierung qualitiativ (+/-) nach Anreicherung ([11]; 2 h after inoculation): -
- Ergebnis der Reisolierung qualitiativ (+/-) nach Anreicherung ([11]; 4 h after inoculation): +
- Ergebnis der Reisolierung qualitiativ (+/-) nach Anreicherung ([11]; 6 h after inoculation): -
- Ergebnis der Reisolierung qualitiativ (+/-) nach Anreicherung ([11]; 8 h after inoculation): -
- Ergebnis der Reisolierung qualitiativ (+/-) nach Anreicherung ([11]; 24 h after inoculation): -
- Ergebnis der Reisolierung qualitiativ (+/-) nach Anreicherung ([11]; 32 h after inoculation): -
- Ergebnis der Reisolierung qualitiativ (+/-) nach Anreicherung ([11]; 48 h after inoculation): -
- Ergebnis der Reisolierung qualitiativ (+/-) nach Anreicherung ([11]; 72 h after inoculation): -
